Results taken from ChEMBL document CHEMBL5126522, “In vitro and in vivo evaluation of 211At-labeled fibroblast activation protein inhibitor for glioma treatment” (Bioorg Med Chem, 2022).

Tests used:
[1] = Drug uptake in thyroid of BALB/c nude mouse xenografted with human U-87 MG cells at 0.3 MBq, iv by gamma-counting analysis; type: ADME, organism-based, Thyroid gland; details: in vivo
[2] = Drug uptake in tumor of BALB/c nude mouse xenografted with human U-87 MG cells at 0.3 MBq, iv measured after 6 hrs by gamma-counting analysis; type: ADME, organism-based, Neoplasm; details: in vivo
[3] = Toxicity in BALB/c nude mouse xenografted with human U-87 MG cells assessed as thyroid morphological changes at 0.55 MBq, it measured after 2 to 12 days by Hematoxylin-Eosin staining based analysis; details: other, time 2-12 day
[4] = Anti-tumor activity against human U-87 MG cells xenografted in BALB/c nude mouse assessed as reduction in tumor volume at 0.37 MBq, it measured on day 15 by electronic caliper analysis; type: functional, U-87MG ATCC
[5] = Drug uptake in liver of BALB/c nude mouse xenografted with human U-87 MG cells at 0.3 MBq, it measured after 0.5 hrs by gamma-counting analysis; type: ADME, tissue-based; details: other
[6] = Drug uptake in stomach of BALB/c nude mouse xenografted with human U-87 MG cells at 0.3 MBq, it by gamma-counting analysis; type: ADME; details: other
[7] = Drug uptake in FAP-positive human U-87 MG cells assessed as binding rate measured for 4 hrs; type: ADME, cell-based; details: u-87mg atcc
[8] = Antitumor activity against human U-87 MG cells xenografted in BALB/c nude mouse assessed as Ki67 expression in tumor at 0.55 MBq, it measured after 2 days by immunohistochemical analysis (reference value: 49.8 +/-7.67%); type: functional, U-87MG ATCC; details: time 2 day
[9] = Ratio of drug level in tumor to muscle in BALB/c nude mouse xenografted with human U-87 MG cells at 0.3 MBq, it measured after 2 hrs by gamma-counting analysis; type: ADME, tissue-based; details: other
[10] = Anti-tumor activity against human U-87 MG cells xenografted in BALB/c nude mouse assessed as median survival time at 0.37 MBq, it (reference value: 16.5 days); type: functional, U-87MG ATCC
[11] = Anti-tumor activity against human U-87 MG cells xenografted in BALB/c nude mouse assessed as median survival time at 0.55 MBq, it (reference value: 16.5 days); type: functional, U-87MG ATCC
[12] = Cytotoxicity against human U-87 MG cells assessed as cell viability at 92 kBq incubated in radioactive medium for 12 hrs followed by incubation in non-radioactive medium for 24 hrs by CCK8 assay; type: functional, U-87MG ATCC; details: time 36 hrs
[13] = Drug uptake in tumor of BALB/c nude mouse xenografted with human U-87 MG cells at 0.3 MBq, it measured after 6 hrs by gamma-counting analysis; type: ADME, Neoplasm; details: other
[14] = Drug uptake in FAP-negative human MCF7 cells assessed as binding rate measured after 10 to 240 mins; type: ADME, cell-based; details: time 10-240 min
[15] = Ratio of drug level in tumor to liver in BALB/c nude mouse xenografted with human U-87 MG cells at 0.3 MBq, it measured after 2 hrs by gamma-counting analysis; type: ADME, tissue-based; details: other
[16] = Renal toxicity BALB/c nude mouse xenografted with human U-87 MG cells assessed as change in BUN level at 0.55 MBq, it measured after 2 to 12 days; details: other, time 2-12 day
[17] = Hepatotoxicity BALB/c nude mouse xenografted with human U-87 MG cells assessed as change in serum ALT level at 0.55 MBq, it measured after 2 to 12 days; type: toxicity; details: other, time 2-12 day
[18] = Inhibition of colony formation in human U-87 MG cells assessed as survival fraction at 9.2 kBq incubated in radioactive medium for 12 hrs followed by incubation in non-radioactive medium for 14 days by crystal violet staining based analysis; type: functional, U-87MG ATCC; details: time 852 hrs
[19] = Ratio of drug level in tumor to blood in BALB/c nude mouse xenografted with human U-87 MG cells at 0.3 MBq, it measured after 2 hrs by gamma-counting analysis; type: ADME, tissue-based; details: other
[20] = Stability of the compound in serum (unknown origin) measured after 24 hrs by iTLC analysis; type: ADME, cell-free; details: read-out: Stability
[21] = Cytotoxicity against human U-87 MG cells assessed as cell viability at 12 kBq incubated in radioactive medium for 12 hrs followed by incubation in non-radioactive medium for 24 hrs by CCK8 assay; type: functional, U-87MG ATCC; details: time 36 hrs
[22] = Toxicity in BALB/c nude mouse xenografted with human U-87 MG cells assessed as change in body weight at 0.18 to 0.55 MBq, it; details: other, dose 0.18-0.55 MBq
[23] = Inhibition of colony formation in human U-87 MG cells assessed as survival fraction at 4.6 kBq incubated in radioactive medium for 12 hrs followed by incubation in non-radioactive medium for 14 days by crystal violet staining based analysis; type: functional, U-87MG ATCC; details: time 852 hrs
[24] = Drug uptake in tumor of BALB/c nude mouse xenografted with human U-87 MG cells at 0.3 MBq, it measured after 2 hrs by gamma-counting analysis; type: ADME, tissue-based, Neoplasm; details: other
[25] = Induction of cell cycle arrest in human U-87 MG cells assessed as proportion of cells at G0/G1 phase at 23 kBq incubated in radioactive medium for 12 hrs followed by incubation in non-radioactive medium for 24 hrs by PI staining based flow cytometry (reference value: 69.9 +/-3.76%); type: functional, U-87MG ATCC; details: time 36 hrs
[26] = Drug uptake in thyroid of BALB/c nude mouse xenografted with human U-87 MG cells at 0.3 MBq, it by gamma-counting analysis; type: ADME, tissue-based, Thyroid gland; details: other
[27] = Drug uptake in liver of BALB/c nude mouse xenografted with human U-87 MG cells at 0.3 MBq, iv measured after 0.5 hrs by gamma-counting analysis; type: ADME, organism-based; details: in vivo
[28] = Antitumor activity against human U-87 MG cells xenografted in BALB/c nude mouse assessed as proportion of TUNEL-positive cells in tumor at 0.55 MBq, it measured after 2 days by immunohistochemical analysis (reference value: 3.54 +/-2.71%); type: functional, U-87MG ATCC; details: time 2 day
[29] = Drug uptake in FAP-positive human U-87 MG cells assessed as binding rate measured after 60 mins; type: ADME, cell-based; details: u-87mg atcc, 1 h
[30] = Stability of the compound in saline measured after 24 hrs by iTLC analysis; type: physicochemical; details: read-out: Stability
[31] = Drug uptake in stomach of BALB/c nude mouse xenografted with human U-87 MG cells at 0.3 MBq, iv by gamma-counting analysis; type: ADME, organism-based; details: in vivo
[32] = Drug uptake in kidney of BALB/c nude mouse xenografted with human U-87 MG cells at 0.3 MBq, it measured after 0.5 hrs by gamma-counting analysis; type: ADME, tissue-based; details: other
[33] = Anti-tumor activity against human U-87 MG cells xenografted in BALB/c nude mouse assessed as reduction in tumor volume at 0.18 MBq, it measured on day 15 by electronic caliper analysis; type: functional, U-87MG ATCC
[34] = Toxicity in BALB/c nude mouse xenografted with human U-87 MG cells assessed as stomach morphological changes at 0.55 MBq, it measured after 2 to 12 days by Hematoxylin-Eosin staining based analysis; type: tissue-based; details: other, time 2-12 day
[35] = Drug uptake in tumor of BALB/c nude mouse xenografted with human U-87 MG cells at 0.3 MBq, iv measured after 0.5 hrs by gamma-counting analysis; type: ADME, organism-based, Neoplasm; details: in vivo
[36] = Inhibition of colony formation in human U-87 MG cells assessed as survival fraction at 18.5 kBq incubated in radioactive medium for 12 hrs followed by incubation in non-radioactive medium for 14 days by crystal violet staining based analysis; type: functional, U-87MG ATCC
[37] = Drug uptake in FAP-positive human U-87 MG cells assessed as binding rate pretreated with excess standard products measured after 60 mins; type: ADME, cell-based; details: u-87mg atcc, 1 h
[38] = Antitumor activity against human U-87 MG cells xenografted in BALB/c nude mouse assessed as proportion of TUNEL-positive cells in tumor at 0.55 MBq, it measured after 12 days by immunohistochemical analysis (reference value: 3.31 +/-1.13%); type: functional, U-87MG ATCC; details: time 12 day
[39] = Toxicity in BALB/c nude mouse xenografted with human U-87 MG cells assessed as liver morphological changes at 0.55 MBq, it measured after 2 to 12 days by Hematoxylin-Eosin staining based analysis; type: tissue-based; details: other, time 2-12 day
[40] = Drug uptake in FAP-positive human U-87 MG cells assessed as binding rate measured after 10 mins; type: ADME, cell-based; details: u-87mg atcc
[41] = Drug uptake in kidney of BALB/c nude mouse xenografted with human U-87 MG cells at 0.3 MBq, iv measured after 0.5 hrs by gamma-counting analysis; type: ADME, organism-based; details: in vivo
[42] = Induction of cell cycle arrest in human U-87 MG cells assessed as proportion of cells at G2/M phase at 23 kBq incubated in radioactive medium for 12 hrs followed by incubation in non-radioactive medium for 24 hrs by PI staining based flow cytometry (reference value: 15.7 +/-3.61%); type: functional, U-87MG ATCC; details: time 36 hrs
[43] = Drug uptake in tumor of BALB/c nude mouse xenografted with human U-87 MG cells at 0.3 MBq, it measured after 0.5 hrs by gamma-counting analysis; type: ADME, tissue-based, Neoplasm; details: other
[44] = Ratio of drug level in tumor to kidney in BALB/c nude mouse xenografted with human U-87 MG cells at 0.3 MBq, it measured after 2 hrs by gamma-counting analysis; type: ADME, tissue-based; details: other
[45] = Anti-tumor activity against human U-87 MG cells xenografted in BALB/c nude mouse assessed as median survival time at 0.18 MBq, it (reference value: 16.5 days); type: functional, U-87MG ATCC
[46] = Drug uptake in tumor of BALB/c nude mouse xenografted with human U-87 MG cells at 0.3 MBq, iv measured after 2 hrs by gamma-counting analysis; type: ADME, organism-based, Neoplasm; details: in vivo
[47] = Toxicity in BALB/c nude mouse xenografted with human U-87 MG cells assessed as kidney morphological changes at 0.55 MBq, it measured after 2 to 12 days by Hematoxylin-Eosin staining based analysis; type: tissue-based; details: other, time 2-12 day
[48] = Anti-tumor activity against human U-87 MG cells xenografted in BALB/c nude mouse assessed as reduction in tumor volume at 0.55 MBq, it measured on day 15 by electronic caliper analysis; type: functional, U-87MG ATCC; details: time 15 day

## N#C[C@@H]1CC(F)(F)CN1C(=O)CNC(=O)c1ccnc2ccc(OCCCN3CCN(C(=O)c4ccc([211At])cc4)CC3)cc12
[1]
  Drug uptake: Active
[2]
  Drug uptake: 1.86 % ID/g
[3]
  Activity: Non-Toxic
[4]
  inhibition (INH): 70%
[5]
  Drug uptake: Active
[6]
  Drug uptake: Active
[7]
  Drug uptake: Active
[8]
  Activity: 17.9%
[9]
  Ratio: 45.75
[10]
  Survival: 30 days
[11]
  Survival: 33 days
[12]
  Activity: 42.1%
[13]
  Drug uptake: 11.47 % ID/g
[14]
  Drug uptake: 4.7%
[15]
  Ratio: 11.13
[16]
  Activity: Non-Toxic
[17]
  Activity: Non-Toxic
[18]
  Activity: 8.1%
[19]
  Ratio: 14.17
[20]
  remaining at 24 h: 85.6%
[21]
  Activity: 61.9%
[22]
  Activity: Non-Toxic
[23]
  Activity: 28.1%
[24]
  Drug uptake: 19.24 % ID/g
[25]
  Activity: 21.9%
[26]
  Drug uptake: Active
[27]
  Drug uptake: Active
[28]
  Activity: 28.7%
[29]
  Drug uptake: 24.9%
[30]
  remaining at 24 h: 94.7%
[31]
  Drug uptake: Active
[32]
  Drug uptake: Active
[33]
  inhibition (INH): 55%
[34]
  Activity: Non-Toxic
[35]
  Drug uptake: 4.04 % ID/g
[36]
  Activity: 1.97%
[37]
  Drug uptake: 9.3%
[38]
  Activity: 28.5%
[39]
  Activity: Non-Toxic
[40]
  Drug uptake: 14.4%
[41]
  Drug uptake: Active
[42]
  Activity: 62.7%
[43]
  Drug uptake: 132.5 % ID/g
[44]
  Ratio: 6.39
[45]
  Survival: 24 days
[46]
  Drug uptake: 3.12 % ID/g
[47]
  Activity: Non-Toxic
[48]
  inhibition (INH): 76%
